Among the data in the supplement of paper PMC10307832 are relative viability values, retold here.

What all share (assay): relative viability (nuclei count vs DMSO), 5 days (fraction); higher = more cells survive
Compound in the assay “Avagacestat + Trametinib”: NC(=O)[C@@H](CCC(F)(F)F)N(Cc1ccc(-c2ncon2)cc1F)S(=O)(=O)c1ccc(Cl)cc1 [Avagacestat] + CC(=O)Nc1cccc(-n2c(=O)n(C3CC3)c(=O)c3c(Nc4ccc(I)cc4F)n(C)c(=O)c(C)c32)c1 [Trametinib] (partner 0.02 µM)
Put shortly: (§1)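 Lung cancer cell lines in 1536-well plates were dosed by pin tool the day after seeding, either with one drug alone or with a fixed anchor-drug dose plus five library-drug doses (not always all listed) in √10 steps. After 5 days, cells were fixed and their nuclei stained in one step (final 0.05% Triton X-100, 1% formaldehyde, 1 ug/ml Hoechst), then counted on 4× images. Relative viability is the nuclei count in treated wells divided by that in vehicle wells. Values are medians of duplicate plates.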

Compound in the assay “Avagacestat + Navitoclax”: NC(=O)[C@@H](CCC(F)(F)F)N(Cc1ccc(-c2ncon2)cc1F)S(=O)(=O)c1ccc(Cl)cc1 [Avagacestat] + CC1(C)CCC(c2ccc(Cl)cc2)=C(CN2CCN(c3ccc(C(=O)NS(=O)(=O)c4ccc(N[C@H](CCN5CCOCC5)CSc5ccccc5)c(S(=O)(=O)C(F)(F)F)c4)cc3)CC2)C1 [Navitoclax] (partner 0.5 µM)
The method in brief:
as §1

Compound in the assay “Avagacestat + Phenformin”: NC(=O)[C@@H](CCC(F)(F)F)N(Cc1ccc(-c2ncon2)cc1F)S(=O)(=O)c1ccc(Cl)cc1 [Avagacestat] + N=C(N)NC(=N)NCCc1ccccc1 [Phenformin] (partner 250 µM)
The method in brief: as §1

Compound in the assay “Avagacestat + Pemetrexed”: NC(=O)[C@@H](CCC(F)(F)F)N(Cc1ccc(-c2ncon2)cc1F)S(=O)(=O)c1ccc(Cl)cc1 [Avagacestat] + Nc1nc2[nH]cc(CCc3ccc(C(=O)N[C@@H](CCC(=O)O)C(=O)O)cc3)c2c(=O)[nH]1 [Pemetrexed] (partner 0.2 µM)
The method in brief:
as §1

Take EPLC-272H: the relative viability with Avagacestat + Trametinib (first compound 0.08 µM) turned out to be 0.309; with Avagacestat + Trametinib (first compound 0.253 µM) it was 0.295; with Avagacestat + Trametinib (first compound 0.8 µM), 0.316; with Avagacestat + Trametinib (first compound 2.53 µM), 0.333; in the assay with Avagacestat + Trametinib (first compound 8 µM), 0.248; in the assay with Avagacestat + Navitoclax (first compound 0.08 µM) it was 1.51. In addition, the relative viability with Avagacestat + Navitoclax (first compound 0.253 µM) stood at 1.13; in the assay with Avagacestat + Navitoclax (first compound 0.8 µM), 1.32; with Avagacestat + Navitoclax (first compound 2.53 µM) it was 1.21; with Avagacestat + Navitoclax (first compound 8 µM) it was 0.964; with Avagacestat + Phenformin (first compound 0.08 µM), 0.309; with Avagacestat + Phenformin (first compound 0.253 µM) it was 0.321. Moreover, the relative viability amounted to 0.321 with Avagacestat + Phenformin (first compound 0.8 µM); 0.306 in the assay with Avagacestat + Phenformin (first compound 2.53 µM); 0.328 with Avagacestat + Phenformin (first compound 8 µM); 0.322 with Avagacestat + Pemetrexed (first compound 0.08 µM); 0.429 with Avagacestat + Pemetrexed (first compound 0.253 µM); 0.318 with Avagacestat + Pemetrexed (first compound 0.8 µM). Besides, the relative viability worked out at 0.31 in the assay with Avagacestat + Pemetrexed (first compound 2.53 µM) and 0.267 with Avagacestat + Pemetrexed (first compound 8 µM).
As for NCI-H2085, the relative viability with Avagacestat + Trametinib (first compound 0.08 µM) came out at 0.608; with Avagacestat + Trametinib (first compound 0.253 µM), 0.604; with Avagacestat + Trametinib (first compound 0.8 µM), 0.637; in the assay with Avagacestat + Trametinib (first compound 2.53 µM), 0.559; with Avagacestat + Trametinib (first compound 8 µM) it was 0.644; in the assay with Avagacestat + Navitoclax (first compound 0.08 µM), 1.21. Also, the relative viability was found to be 1.37 with Avagacestat + Navitoclax (first compound 0.253 µM); 1.13 with Avagacestat + Navitoclax (first compound 0.8 µM); 1.26 with Avagacestat + Navitoclax (first compound 2.53 µM); 1.08 in the assay with Avagacestat + Navitoclax (first compound 8 µM); 0.85 with Avagacestat + Phenformin (first compound 0.08 µM); 0.756 with Avagacestat + Phenformin (first compound 0.253 µM). For the same cell line, the relative viability was 0.726 with Avagacestat + Phenformin (first compound 0.8 µM); 0.862 with Avagacestat + Phenformin (first compound 2.53 µM); 0.729 with Avagacestat + Phenformin (first compound 8 µM); 0.856 with Avagacestat + Pemetrexed (first compound 0.08 µM); 0.871 with Avagacestat + Pemetrexed (first compound 0.253 µM); 1.04 with Avagacestat + Pemetrexed (first compound 0.8 µM). Moreover, the figures for the relative viability with Avagacestat + Pemetrexed (first compound 2.53 µM) and in the assay with Avagacestat + Pemetrexed (first compound 8 µM) were 0.902 and 0.861, respectively.
As to BEN, the relative viability with Avagacestat + Trametinib (first compound 0.08 µM) was 1.1; with Avagacestat + Trametinib (first compound 0.253 µM) it was 1.18; with Avagacestat + Trametinib (first compound 0.8 µM), 1.05; in the assay with Avagacestat + Trametinib (first compound 2.53 µM) it was 0.917; in the assay with Avagacestat + Trametinib (first compound 8 µM), 1.13; with Avagacestat + Navitoclax (first compound 0.08 µM), 0.0581. For the same cell line, the relative viability was 0.0757 with Avagacestat + Navitoclax (first compound 0.253 µM); 0.141 with Avagacestat + Navitoclax (first compound 0.8 µM); 0.061 in the assay with Avagacestat + Navitoclax (first compound 2.53 µM); 0.0756 with Avagacestat + Navitoclax (first compound 8 µM); 0.262 with Avagacestat + Phenformin (first compound 0.08 µM); 0.274 with Avagacestat + Phenformin (first compound 0.253 µM). Further, the relative viability with Avagacestat + Phenformin (first compound 0.8 µM) was determined as 0.271; in the assay with Avagacestat + Phenformin (first compound 2.53 µM), 0.25; in the assay with Avagacestat + Phenformin (first compound 8 µM) it was 0.26; in the assay with Avagacestat + Pemetrexed (first compound 0.08 µM), 0.879; with Avagacestat + Pemetrexed (first compound 0.253 µM) it was 0.897; in the assay with Avagacestat + Pemetrexed (first compound 0.8 µM), 0.851. Besides, the relative viability worked out at 0.904 with Avagacestat + Pemetrexed (first compound 2.53 µM) and 0.807 with Avagacestat + Pemetrexed (first compound 8 µM).
Consider COR-L 105, for which the relative viability with Avagacestat + Trametinib (first compound 0.08 µM) amounted to 0.401; with Avagacestat + Trametinib (first compound 0.253 µM) it was 0.45; with Avagacestat + Trametinib (first compound 0.8 µM), 0.457; with Avagacestat + Trametinib (first compound 2.53 µM) it was 0.42; with Avagacestat + Trametinib (first compound 8 µM), 0.474; with Avagacestat + Navitoclax (first compound 0.08 µM), 0.851. For the same cell line, the relative viability with Avagacestat + Navitoclax (first compound 0.253 µM) came out at 0.604; with Avagacestat + Navitoclax (first compound 0.8 µM) it was 0.779; with Avagacestat + Navitoclax (first compound 2.53 µM), 0.595; with Avagacestat + Navitoclax (first compound 8 µM), 0.648; with Avagacestat + Phenformin (first compound 0.08 µM) it was 0.534; in the assay with Avagacestat + Phenformin (first compound 0.253 µM) it was 0.407. Further, the relative viability is 0.448 in the assay with Avagacestat + Phenformin (first compound 0.8 µM); 0.397 with Avagacestat + Phenformin (first compound 2.53 µM); 0.429 in the assay with Avagacestat + Phenformin (first compound 8 µM); 1.2 with Avagacestat + Pemetrexed (first compound 0.08 µM); 1.21 with Avagacestat + Pemetrexed (first compound 0.253 µM); 1.12 with Avagacestat + Pemetrexed (first compound 0.8 µM). Besides, the relative viability with Avagacestat + Pemetrexed (first compound 2.53 µM) worked out at 0.983; with Avagacestat + Pemetrexed (first compound 8 µM) it was 1.02.
For the cell line HCC-15, the relative viability with Avagacestat + Trametinib (first compound 0.08 µM) worked out at 0.395; in the assay with Avagacestat + Trametinib (first compound 0.253 µM) it was 0.44; with Avagacestat + Trametinib (first compound 0.8 µM), 0.391; with Avagacestat + Trametinib (first compound 2.53 µM) it was 0.394; with Avagacestat + Trametinib (first compound 8 µM), 0.374; in the assay with Avagacestat + Navitoclax (first compound 0.08 µM), 0.87. The relative viability with Avagacestat + Navitoclax (first compound 0.253 µM) was 0.806; with Avagacestat + Navitoclax (first compound 0.8 µM) it was 0.799; in the assay with Avagacestat + Navitoclax (first compound 2.53 µM) it was 0.732; with Avagacestat + Navitoclax (first compound 8 µM) it was 0.591; with Avagacestat + Phenformin (first compound 0.08 µM) it was 0.617; with Avagacestat + Phenformin (first compound 0.253 µM), 0.592. The relative viability came out at 0.512 in the assay with Avagacestat + Phenformin (first compound 0.8 µM); 0.491 with Avagacestat + Phenformin (first compound 2.53 µM); 0.378 with Avagacestat + Phenformin (first compound 8 µM); 0.227 in the assay with Avagacestat + Pemetrexed (first compound 0.08 µM); 0.22 in the assay with Avagacestat + Pemetrexed (first compound 0.253 µM); 0.232 in the assay with Avagacestat + Pemetrexed (first compound 0.8 µM). The relative viability is 0.212 in the assay with Avagacestat + Pemetrexed (first compound 2.53 µM) and 0.194 with Avagacestat + Pemetrexed (first compound 8 µM).
Regarding NCI-H2170, the relative viability amounted to 1 with Avagacestat + Trametinib (first compound 0.08 µM); 1.17 in the assay with Avagacestat + Trametinib (first compound 0.253 µM); 1 in the assay with Avagacestat + Trametinib (first compound 0.8 µM); 0.867 with Avagacestat + Trametinib (first compound 2.53 µM); 0.881 with Avagacestat + Trametinib (first compound 8 µM); 0.745 in the assay with Avagacestat + Navitoclax (first compound 0.08 µM). Moreover, the relative viability with Avagacestat + Navitoclax (first compound 0.253 µM) was 0.594; with Avagacestat + Navitoclax (first compound 0.8 µM), 0.621; with Avagacestat + Navitoclax (first compound 2.53 µM) it was 0.417; in the assay with Avagacestat + Navitoclax (first compound 8 µM) it was 0.548; with Avagacestat + Phenformin (first compound 0.08 µM), 0.418; in the assay with Avagacestat + Phenformin (first compound 0.253 µM), 0.411. Moreover, the relative viability came out at 0.377 with Avagacestat + Phenformin (first compound 0.8 µM); 0.406 with Avagacestat + Phenformin (first compound 2.53 µM); 0.382 with Avagacestat + Phenformin (first compound 8 µM); 0.258 in the assay with Avagacestat + Pemetrexed (first compound 0.08 µM); 0.268 with Avagacestat + Pemetrexed (first compound 0.253 µM); 0.23 with Avagacestat + Pemetrexed (first compound 0.8 µM). In addition, the values for the relative viability in the assay with Avagacestat + Pemetrexed (first compound 2.53 µM) and with Avagacestat + Pemetrexed (first compound 8 µM) were 0.274 and 0.261, respectively.
Regarding SK-LU-1, the relative viability with Avagacestat + Trametinib (first compound 0.08 µM) worked out at 0.524; in the assay with Avagacestat + Trametinib (first compound 0.253 µM), 0.457; in the assay with Avagacestat + Trametinib (first compound 0.8 µM) it was 0.516; with Avagacestat + Trametinib (first compound 2.53 µM), 0.467; with Avagacestat + Trametinib (first compound 8 µM), 0.382; with Avagacestat + Navitoclax (first compound 0.08 µM) it was 1.11. In addition, the relative viability in the assay with Avagacestat + Navitoclax (first compound 0.253 µM) was found to be 1.08; with Avagacestat + Navitoclax (first compound 0.8 µM) it was 1; with Avagacestat + Navitoclax (first compound 2.53 µM), 0.706; with Avagacestat + Navitoclax (first compound 8 µM), 0.93; with Avagacestat + Phenformin (first compound 0.08 µM) it was 0.539; with Avagacestat + Phenformin (first compound 0.253 µM), 0.499. Further, the relative viability with Avagacestat + Phenformin (first compound 0.8 µM) came to 0.523; with Avagacestat + Phenformin (first compound 2.53 µM), 0.353; in the assay with Avagacestat + Phenformin (first compound 8 µM) it was 0.474; with Avagacestat + Pemetrexed (first compound 0.08 µM) it was 1.19; in the assay with Avagacestat + Pemetrexed (first compound 0.253 µM) it was 0.972; with Avagacestat + Pemetrexed (first compound 0.8 µM) it was 0.951. Further, the relative viability in the assay with Avagacestat + Pemetrexed (first compound 2.53 µM) came out at 0.97; with Avagacestat + Pemetrexed (first compound 8 µM) it was 0.741.
